# According to patent US10668024B2, “Mesoporous silica nanoparticles for biomedical applications” (The Regents of the University of California, priority 2007, dated 2020):
# What was measured:
# [1] = tested on: PANC-1 cells; experiment: Confocal microscopy of FMSN uptake, Example 3; type: cell-based, human; conditions: 0.1% sodium azide, sucrose 0.45 M, bafilomycin A 0.05 μM, nocodazole 2 μg/ml, brefeldin A 5 μg/ml
# Protocol: The fluorescence of FITC was used to monitor cellular uptake of FMSN. Cells were incubated with FMSN for 3 h at 37° C. under a 5% CO2 95% air atmosphere in an 8-chamber Lab-Tek chamber slide system with covers (Nalge Nunc International), washed with phosphate buffered saline (PBS) and examined with confocal microscopy (λex=470 nm) (Carl Zeiss LSM 310 Laser Scanning Confocal microscopy). To examine the distribution of FMSN within the cells, the same cells were then incubated with 6 μM of Acridine Orange (AO) (Sigma), which specifically stains lysosomes/endosomes to red (Canonico, P. G. and Bird, J. W. C. (1969), J. Cell Biol. 43, 367-371), for 1 h in DMEM without phenol red, washed with PBS, and examined by confocal microscopy again (λex=488 nm). The emission light was passed through a 560-nm short-pass dichroic mirror. The green emission was passed through a 530-nm bandpass filter, and the red emission was passed through a 600-nm longpass filter. Both emissions were simultaneously collected using two photomultiplier tubes.
# To determine whether the uptake of FMSN into cancer cells was energy-dependent, the cells were incubated with FMSN under different metabolic conditions. The uptake assay was performed in the presence of sodium azide, sucrose, bafilomycin A, nocodazole or brefeldin A. Cells were seeded on 8-chamber Lab-Tek chamber slides for 24 h, then preincubated at 4° C. with either 0.1% sodium azide, or sucrose (0.45 M), or bafilomycin A (0.05 μM), or nocodazole (2 μg/ml), or brefeldin A (5 μg/ml) for 10 min. The FMSN suspension in PBS was then added and the cells were incubated for additional 3 h at 37° C. The uptake was stopped by washing the cells three times with cold PBS, and then the cells were fixed with 4% paraformaldehyde in PBS for 1 h at room temperature and washed with PBS. The chambers of slides were removed, and each slide was mounted with fluorescence-free glycerol-based mounting medium (Fluoromount-G; Southern Biotechnology Associates, USA) by cover glasses. Cells were analyzed by confocal microscopy (Carl Zeiss LSM 310 Laser Scanning Confocal microscopy).
# [2] = tested on: PANC-1 cells; experiment: Fluorescence and confocal microscopy, Example 2; type: cell-based, human; conditions: suspension of CPT in PBS, 100 nM, 3 hours incubation
# Text: (§1) Human cancer cell lines, PANC-1, AsPC-1, Capan-1 (pancreatic), MKN45 (gastric), and SW480 (colon) were obtained from the American Type Culture Collection and were maintained in Dulbecco's modified Eagle's medium (DMEM) (GIBCO) or RPMI-1640 (Cellgro) supplemented with 10% fetal calf serum (Sigma), 2% L-glutamine, 1% penicillin, and 1% streptomycin stock solutions. The media were changed every 3 days, and the cells were passaged by trypsinization before confluence.
# The fluorescence of the nanoparticles at 470 nm excitation wavelength was used to confirm the cellular uptake of FMSN. […] The cells were then monitored by fluorescence microscope with an excitation wavelength at 470 nm. To examine the location of FMSN within the cells, Acridine Orange (AO) (Sigma) and lysoSensor green DND-189 (Invitrogen) were used to monitor lysosomes and endosomes. Cells were cultured overnight on a Lab-Tek chamber slide system (Nalge Nunc International). After the cells were incubated with FMSN for 3 hours, they were washed with PBS and examined with confocal microscope (λex=470 nm) (Carl Zeiss LSM 310 Laser Scanning Confocal microscope). […] This property allows the use of fluorescence to study the distribution of CPT inside the cells. PANC-1 cells were incubated with CPT-loaded FMSN or CPT suspended in PBS (100 nM) for 3 hours, washed with PBS 3 times, and then examined by fluorescence microscope under UV.
# [3] = tested on: AsPc-1 cells; experiment: Cell death assay (WST-8), Example 2; type: cell-based, human
# Text: as §1
# [4] = tested on: Capan-1 cells; experiment: Cell death assay (WST-8), Example 2; type: cell-based, human
# Text: as §1
# [5] = tested on: MKN-45 cells; experiment: Cell death assay (WST-8), Example 2; type: cell-based, human
# Text: as §1
# [6] = tested on: PANC-1 cells; experiment: Cell death assay (WST-8), Example 2; type: cell-based, human
# Text: as §1
# [7] = tested on: SW480 cells; experiment: Cell death assay (WST-8), Example 2; type: cell-based, human
# Text: as §1
# [8] = tested on: PANC-1 cells; experiment: Apoptosis assay (propidium iodide/Hoechst 33342, DNA fragmentation, caspase-3 Western blot); type: cell-based, human; conditions: 24 hours
# Protocol: Cell death was also examined using the propidium iodide and Hoechst 33342 double-staining method. The cells were stained with propidium iodide/Hoechst 33342 (1:1) for 5 minutes and then examined using fluorescence microscope. DNA fragmentation assay was also performed. PANC-1 cells were treated for 24 hours with: (1) 100 nM CPT in PBS, (2) 100 nM CPT loaded in FMSN (suspended in PBS), or (3) 64 μg/ml nonloaded FMSN in PBS, then washed twice with ice-cold PBS and collected by trypsinization. The cell pellets were resuspended in 500 μl of Tris-EDTA buffer (20 mM Tris-HCl [pH 8.0], 20 mM EDTA) containing 0.1% SDS and proteinase K (0.5 mg/ml) at 50° C. for 2 hours and then treated with RNase A (0.02 mg/ml) for 30 minutes at 37° C. DNA was extracted using phenol/chloroform and ethanol precipitation and was dissolved in distilled water, separated on a 2% agarose gel, and stained with ethidium bromide.
# Proteins were separated by gel electrophoresis on a polyacrylamide gel containing sodium dodecyl sulfate (SDS), and then transferred to nitrocellulose membranes. The membranes were blocked with tris buffer saline (TBS) containing 5% (W/V) skim milk. […] Bands were detected with an ECL system (Amersham Pharmacia Biotech K.K., UK).
# [9] = tested on: PANC-1 cells; experiment: Cell morphology analysis by light microscopy; conditions: PANC-1, paclitaxel dissolved in DMSO
# [10] = tested on: cancer cells; conditions: relative to CPT; cited from earlier work
smiles,measurement,setting,value
COC(=O)Nc1nc2ccc(C(=O)c3cccs3)cc2[nH]1 [nocodazole],effect of preincubation with inhibitor on uptake of FMSN,[1],significantly disrupted the uptake
"CC[C@@]1(O)C(=O)OCc2c1cc1n(c2=O)Cc2cc3ccccc3nc2-1 [CPT, camptothecin]",CPT fluorescence in cells,[2],remained nonfluorescent
same,cytotoxicity / growth inhibition,"[3]; AsPc-1, CPT dissolved in DMSO, 24 h treatment + 48 h",growth inhibition of different human cancer cells was observed
same,cytotoxicity,"[3]; AsPc-1, CPT suspended in PBS, even at high concentrations",did not show any cytotoxicity
same,cytotoxicity / growth inhibition,"[4]; Capan-1, CPT dissolved in DMSO, 24 h treatment + 48 h",growth inhibition of different human cancer cells was observed
same,cytotoxicity,"[4]; Capan-1, CPT suspended in PBS, even at high concentrations",did not show any cytotoxicity
same,cytotoxicity / growth inhibition,"[5]; MKN-45, CPT dissolved in DMSO, 24 h treatment + 48 h",growth inhibition of different human cancer cells was observed
same,cytotoxicity,"[5]; MKN-45, CPT suspended in PBS, even at high concentrations",did not show any cytotoxicity
same,cytotoxicity / growth inhibition,"[6]; PANC-1, CPT dissolved in DMSO, 24 h treatment + 48 h",growth inhibition of different human cancer cells was observed
same,cytotoxicity,"[6]; PANC-1, CPT suspended in PBS, even at high concentrations",did not show any cytotoxicity
same,cytotoxicity / growth inhibition,"[7]; SW480, CPT dissolved in DMSO, 24 h treatment + 48 h",growth inhibition of different human cancer cells was observed
same,cytotoxicity,"[7]; SW480, CPT suspended in PBS, even at high concentrations",did not show any cytotoxicity
same,mechanism of cell death (propidium iodide/Hoechst 33342 double staining),"[8]; PANC-1, CPT dissolved in DMSO, compared with CPT-loaded FMSN",similar
OC[C@H]1O[C@@](CO)(O[C@H]2O[C@H](CO)[C@@H](O)[C@H](O)[C@H]2O)[C@@H](O)[C@@H]1O [sucrose],effect of preincubation with inhibitor on uptake of FMSN,[1],suppressed the uptake
C[C@H]1CCC/C=C/[C@@H]2C[C@H](O)C[C@H]2[C@H](O)/C=C/C(=O)O1 [brefeldin A],effect of preincubation with inhibitor on uptake of FMSN,[1],did not show any effect
CO/C1=C\C(C)=C\[C@@H](C)[C@@H](O)[C@@H](C)C/C(C)=C/C=C/[C@H](OC)[C@@H]([C@@H](C)[C@@H](O)[C@H](C)[C@@]2(O)C[C@@H](O)[C@H](C)[C@@H](C(C)C)O2)OC1=O [bafilomycin A],effect of preincubation with inhibitor on uptake of FMSN,[1],completely suppressed the uptake
CC(=O)O[C@H]1C(=O)[C@@]2(C)[C@H]([C@H](OC(=O)c3ccccc3)[C@]3(O)C[C@H](OC(=O)[C@H](O)[C@@H](NC(=O)c4ccccc4)c4ccccc4)C(C)=C1C3(C)C)[C@]1(OC(C)=O)CO[C@@H]1C[C@@H]2O [paclitaxel],morphologic change of the cells,[9],Cells became round and smaller
CCc1c2c(nc3ccc(OC(=O)N4CCC(N5CCCCC5)CC4)cc13)-c1cc3c(c(=O)n1C2)COC(=O)[C@]3(O)CC [irinotecan],cytotoxicity to cancer cells compared to CPT,[10],10%
"C[S+](C)[O-] [DMSO, dimethyl sulfoxide]",mechanism of cell death (propidium iodide/Hoechst 33342 double staining),"[8]; PANC-1, 10% DMSO",induced necrosis
